Measurements reported in US20170002041A1, “NOVEL ULTRASHORT HYDROPHOBIC PEPTIDES THAT SELF-ASSEMBLE INTO NANOFIBROUS HYDROGELS AND THEIR USES” (AGENCY FOR SCIENCE, TECHNOLOGY AND RESEARCH, priority 2013, published 2017).
Each block holds one substance with its values, some of them ahead of it.

Experiments:
Type in all cases: physicochemical
[1] = Hydrogel formation / minimum gelation concentration
From the text: To prepare the peptide hydrogels, the lyophilized peptide powders were first dissolved in milliQ water and mixed by vortexing for 30 seconds to obtain a homogenous solution. The gelation occurred between minutes to overnight, depending on the peptide concentration. Gelation can be facilitated by sonication or heating.

[2] = Formation of aggregates and fibrous structures
[3] = Hydrogel rigidity, storage modulus (G′)

hydrogel formation ([1]; at 5 mg/mL): hydrogel
Substance: Ac-ILVAG

Substance: Ac-LD6 (L)
concentration at which formation of aggregates is observed [2]: 100 µg/mL | concentration at which peptide monomers align to form fibrous structures [2]: 1000 µg/mL

minimum gelation concentration (forms hydrogels at) ([1]; in 10 mM NaOH): 10 mg/mL | minimum gelation concentration (forms hydrogels at) ([1]; in PBS): 7.5 mg/mL | minimum gelation concentration (forms hydrogels at) ([1]; in saline): 12 mg/mL | minimum gelation concentration (forms hydrogels at) ([1]; in water): 20 mg/mL | storage modulus (G′) ([3]; 20 mg/mL hydrogel in normal saline (NaCl)): 10 kPa | storage modulus (G′) ([3]; 20 mg/mL hydrogel in phosphate buffered saline (PBS)): 40 kPa | storage modulus (G′) ([3]; 20 mg/mL hydrogel in water): 1 kPa | storage modulus (G′) ([3]; 20 mg/mL hydrogel, addition of sodium hydroxide (NaOH)): 80 kPa
Substance: Ac-LIVAGK-NH2
